“And” between values parts separate entries of the source, which are not always exact repeats. Identical values can stand only once. Like-named read-outs stand apart in the source and are kept apart here.
Experiments:
P2Y12 receptor [1] = molecular target: T1, P2Y12 receptor (Homo sapiens, UniProt Q9H244); assay: VerifyNow P2Y12 assay, post-treatment platelet reactivity (PRU) in patients with sirolimus-eluting stents (Example 3); type: in vivo; set-up: The patient sample is usually citrated whole blood; endogenous in cells; host or cells: platelets in citrated whole blood of patients
Method: Patients on clopidogrel therapy or who were clopidogrel naïve were eligible for inclusion. […] The assay contains […] and 22 nM prostaglandin E1 to reduce the activation contribution from ADP binding to P2Y1 receptors. […] With this assay, a higher PRU reflects greater ADP-mediated platelet reactivity. The mean coefficient of variation of test precision has been reported to be 3.2% in patients with coronary artery disease. Interventional strategy was at the discretion of the operator.

[2] = tested on: ADP-induced human platelet aggregation; details: read-out: IC50 for the inhibition of ADP-induced human platelet aggregation; cited from earlier work
P2Y12 receptor [3] = molecular target: T1, P2Y12 receptor; details: for percentage of inhibition: on clopidogrel at time of procedure; for percentage inhibition: clopidogrel naive, loaded with 600 mg
Source text: The VerifyNow™ System instrument is a turbidimetric-based optical detection system that measures platelet induced aggregation as an increase in light transmittance. The system includes an analyzer, disposable cartridge and controls. The cartridge contains reagents based on microparticle agglutination technology. The quality control system includes an electronic control, two levels of assayed “wet” controls (WQC), an in-cartridge humidity sensor, an in-packaging temperature indicator, and a test for concurrence of two assay channels. […] For use in the present methods the test cartridge of the system contains a lyophilized preparation comprising particles with passively bound GPIIb/IIIa receptor ligand, a composition of ADP and PGE1, and buffer. The patient sample is usually citrated whole blood, which is automatically dispensed from the blood collection tube into the cartridge by the analyzer, with no blood handling required by the user. The interaction is monitored by the infrared absorbency characteristics of the particles. As the particles interact with the platelets, the agglutination of the particles is measured through the optical system of the VerifyNow™ analyzer. The agglutination is detected as an increase in the transmission of infrared light through the sample. The reaction kinetics are analyzed and translated into “P2Y12 Response Units”, PRU.
Whole blood was obtained from the side port of the arterial sheath prior to anticoagulant or anti-thrombin therapy and by phlebotomy 12 hours post-PCI.
All patients received 325 mg uncoated aspirin the day of the procedure regardless of previous aspirin use. […] Either intra-procedural heparin (with a goal activated clotting time of >250 sec) or bivalirudin were administered during the procedure at operator discretion.
Patients were judged to be insulin resistant if their Homeostasis Model Assessment index, calculated as: [fasting insulin (μU/mL)]*[fasting glucose (mg/dl)]/405, was >3.0 or if they had diabetes requiring medication.

[4] = tested on: patients undergoing PCI with DES
Method: Interventional strategy was at the discretion of the operator. Either intra-procedural unfractionated heparin (with a goal-activated clotting time>250 s) or bivalirudin was used during the procedure. All patients received SES, and they received aspirin 325 mg on the day of the procedure regardless of previous aspirin use.
“Technical success” was defined as a final diameter stenosis ≦30% and thrombolysis in myocardial infarction (TIMI) flow grade 3. Clinical endpoints measured were cardiovascular (CV) death, non-fatal myocardial infarction (MI), and stent thrombosis. “MI over follow-up” was defined as any typical rise and fall of cardiac biomarkers in the setting of clinical signs or symptoms consistent with cardiac ischaemia, following the American College of Cardiology definition (Cannon, et al., J. Am. Coll. Cardiol. (2001) 38:2114-2130). The Academic Research Consortium definitions were used for “stent thrombosis” (definite, probable, and possible) (Mauri, et al., N. Engl. J. Med. (2007) 356:1020-1029). “Subacute stent thrombosis” was defined as stent thrombosis occurring after discharge to 30 day follow-up, and late-stent thrombosis was defined as stent thrombosis occurring between 30 day and 6 month follow-ups.
The computer-based analysis program SPSS (Statistical Package for the Social Sciences, 12.0 for PC, SPSS Inc., Chicago, Ill., USA) was used for statistical calculations. […] Comparison of continuous variables was performed using Student's t-test. The χ^2 test was used to detect differences in categorical variables, and a Fisher's exact test was used when any expected cell count was <5 for a 2 by 2 table. The Kolmogorov-Smirnov test was used to test for normality. A receiver-operating characteristic (ROC) curve analysis was used to determine the ability of the VERIFYNOW™ P2Y12 assay to distinguish between patients with and without post-discharge events after PCI. The optimal cut-off point was calculated by determining the post-treatment PRU that provided the greatest sum of sensitivity and specificity. Bootstrap validation was performed using R software. Survival curves were generated using the Kaplan-Meier method, and the difference between curves was assessed by log-rank test. A P-value<0.05 was considered significant.

platelet aggregation = details: Muller et al. 2003; cited from earlier work
[5] = after discharge, 6 month follow-up, all patients
[6] = clopidogrel for minimum 3 months, high reactivity (n = 121)
[7] = clopidogrel for minimum 3 months, lower reactivity (n = 252)
[8] = clopidogrel for minimum 3 months, overall group (n = 373)
[9] = clopidogrel through 6 month follow-up, high reactivity (n = 108)
[10] = clopidogrel through 6 month follow-up, lower reactivity (n = 258)
[11] = clopidogrel through 6 month follow-up, overall group (n = 317)
[12] = patients with high post-treatment reactivity
[13] = patients without high post-treatment reactivity

T1 sequence (Q9H244 whole entry): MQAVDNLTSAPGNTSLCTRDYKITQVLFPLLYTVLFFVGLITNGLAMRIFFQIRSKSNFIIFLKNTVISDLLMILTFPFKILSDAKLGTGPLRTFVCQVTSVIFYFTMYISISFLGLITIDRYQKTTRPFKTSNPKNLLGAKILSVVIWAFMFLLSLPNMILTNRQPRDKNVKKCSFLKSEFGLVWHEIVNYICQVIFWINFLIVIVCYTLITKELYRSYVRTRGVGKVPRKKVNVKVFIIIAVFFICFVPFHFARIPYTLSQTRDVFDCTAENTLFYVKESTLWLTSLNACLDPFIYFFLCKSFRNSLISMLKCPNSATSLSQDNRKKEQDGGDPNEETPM

bivalirudin
post-treatment reactivity on clopidogrel by intra-procedural anticoagulant (P2Y12 receptor [1]; patients receiving intra-procedural heparin or bivalirudin): 184±84 PRU

CCCCC[C@H](O)/C=C/[C@H]1[C@H](O)CC(=O)[C@@H]1CCCCCCC(=O)O [PGE1, prostaglandin E1]
IC50 [2]: ~40 nM

COC(=O)[C@H](c1ccccc1Cl)N1CCc2sccc2C1 [clopidogrel]
percentage of inhibition (P2Y12 receptor [3]; Patient No. 1, acute thrombosis 80 minutes after PCI): 0% | percentage of inhibition (P2Y12 receptor [3]; Patient No. 2, sub-acute thrombosis 6 days following PCI): 0% | percentage inhibition (P2Y12 receptor [3]; Patient No. 3, sub-acute thrombosis 34 days following PCI): 0% | percentage inhibition (P2Y12 receptor [3]; Patient No. 4, sub-acute thrombosis 8 days following PCI): 44% | share of patients undergoing PCI with clopidogrel-induced platelet inhibition <10% (P2Y12 receptor [3]; point-of-care assay, N = 280): one quarter | overall rate of late-stent thrombosis ([4]; 30 day to 6 month follow-up): 0.8% | Non-fatal MI [4, 5]: 1.3% | combined endpoint of CV death, non-fatal MI, or stent thrombosis [4, 5]: 2.6% | episodes of stent thrombosis [4, 5]: 1.6% | Non-fatal MI [4, 6]: 2 (1.7) n (%) | Stent thrombosis [4, 6]: 5 (4.1) n (%) | Non-fatal MI [4, 7]: 2 (0.8) n (%) | Stent thrombosis [4, 7]: 0 n (%) | Non-fatal MI [4, 8]: 4 (1.1) n (%) | Stent thrombosis [4, 8]: 5 (1.3) n (%) | Non-fatal MI [4, 9]: 2 (1.9) n (%) | Stent thrombosis [4, 9]: 5 (4.6) n (%) | Non-fatal MI [4, 10]: 2 (1.0) n (%) | Stent thrombosis [4, 10]: 0 n (%) | Non-fatal MI [4, 11]: 4 (1.3) n (%) | Stent thrombosis [4, 11]: 5 (1.6) n (%) | overall rate of subacute stent thrombosis ([4]; discharge to 30 day follow-up): 0.8% | rate of CV mortality [4, 12]: 2.8% | rate of all-cause death, non-fatal MI, or stent thrombosis [4, 12]: 6.5% | rate of any stent thrombosis [4, 12]: 4.6% | rate of combined endpoint of CV death, non-fatal MI, or stent thrombosis [4, 12]: 6.5% | rate of definite or probable stent thrombosis [4, 12]: 2.8% | survival rate free from the combined endpoint of CV death, non-fatal MI, or stent thrombosis [4, 12]: 91.4% | rate of CV mortality [4, 13]: 0% | rate of all-cause death, non-fatal MI, or stent thrombosis [4, 13]: 1.4% | rate of any stent thrombosis [4, 13]: 0% | rate of combined endpoint of CV death, non-fatal MI, or stent thrombosis [4, 13]: 1.0% | rate of definite or probable stent thrombosis [4, 13]: 0% | survival rate free from the combined endpoint of CV death, non-fatal MI, or stent thrombosis [4, 13]: 99.0% | patients receiving the drug who did not achieve the expected platelet aggregation inhibition (platelet aggregation): at least 10% | mean post-treatment reactivity (P2Y12 receptor [1]; all patients, n = 380): 184±85 PRU | post-treatment reactivity (P2Y12 receptor [1]; clopidogrel-naive patients, 12 h after 600 mg loading dose): 183±94 PRU | post-treatment reactivity of the patients who had stent thrombosis while taking antiplatelet therapy (P2Y12 receptor [1]; individual patients): 283 PRU and 292 PRU and 236 PRU and 244 PRU and 271 PRU | post-treatment reactivity (P2Y12 receptor [1]; patients on previous clopidogrel therapy): 186±73 PRU | platelet reactivity (P2Y12 receptor [1]; patients with adverse events): 242 PRU | platelet reactivity (P2Y12 receptor [1]; patients without adverse events): 186 PRU
